Reference: patent publication EP1212309B1, “CASPASE INHIBITOR” (LG Chem Investment, Ltd., priority 1999, dated 2001)
“And” between values parts separate entries of the source, which are not always exact repeats. Equal values may be shown once. Read-outs that look alike come from different tables or passages of the source. One block for each molecule: values may come before it.

How the values were obtained:
Jurkat T cell = experiment: MTT assay of cell death induced by Anti-FAS antibody CH11; assay type: cell-based; settings: Jurkat T cell treated with Anti-FAS antibody CH11, MTT, read-out: ED50 FAS Induced cell death
caspase-1 = target: T1, caspase-1 (Homo sapiens, UniProt P29466); experiment: Screening on caspases inhibiting activity (recombinant enzyme, fluorogenic AMC substrate); assay type: biochemical; settings: for Ki: Reversible Inhibitor
T1 construct: made in house
T1 sequence (P29466 120-297 limits assumed): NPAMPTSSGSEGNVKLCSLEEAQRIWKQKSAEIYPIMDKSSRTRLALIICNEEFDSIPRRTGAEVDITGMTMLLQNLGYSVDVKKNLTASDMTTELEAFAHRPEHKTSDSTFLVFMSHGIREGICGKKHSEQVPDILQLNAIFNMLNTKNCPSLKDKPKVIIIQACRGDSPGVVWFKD
T1 sequence (P29466 317-404 limits assumed): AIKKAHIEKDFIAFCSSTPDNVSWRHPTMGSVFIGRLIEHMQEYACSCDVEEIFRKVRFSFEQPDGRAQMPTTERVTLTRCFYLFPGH
Method: (§1) In the present experiment, recombinant caspases were purified from a transformed bacterium after human caspase genes were cloned into the expression vector pET, and then used in the experiment (Thornberry, N.A. et .al. Nature, 1992, 356, 768. Thombeny, N.A. Methods in Enzymology, 1994, 615.).
(§2) Enzymatic activity was measured by a known procedure (Walker N.P.C. et al., Cell 1994, 78, 343). Briefly, 10 ng of recombinant protein was mixed with 50 mM Tris(pH 7.0), 1mM DTT, 0.5 mM EDTA, 10% Glycerol buffer containing 1∼100 µM of enzyme substrate, Ac-YVAD-AMC or Ac-DEVD-AMC and then the changes by isolated AMC at 37°C were recorded. The inhibitory activity for caspases was calculated from the early enzyme reaction rate by measuring the changes with fluorescence excited at […] and emitted at 460 nm (Range; Ki<100nM).

caspase-3 = target: T2, caspase-3 (Homo sapiens, UniProt P42574); experiment: as above; assay type: biochemical; settings: Irreversible Inhibitors
T2 construct: made in house
T2 sequence (P42574 29-175 limits assumed): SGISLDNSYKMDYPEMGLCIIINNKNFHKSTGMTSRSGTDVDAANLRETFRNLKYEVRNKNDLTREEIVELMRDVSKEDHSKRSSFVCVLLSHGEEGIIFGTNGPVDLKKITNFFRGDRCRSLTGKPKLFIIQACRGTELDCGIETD
T2 sequence (P42574 176-277 limits assumed): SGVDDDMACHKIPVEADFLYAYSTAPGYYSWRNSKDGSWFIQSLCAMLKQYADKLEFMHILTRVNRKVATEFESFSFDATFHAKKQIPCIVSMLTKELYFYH
Method: as §1, §2

WI38 cells = experiment: Protection from IFNγ and anti-Fas antibody-induced apoptosis (XTT); assay type: cell-based, human; settings: 100% when Fas antibody was not treated; for viability ratio: WI38 cells
Method: WI38 cells (human embryonal lung fibroblast) were grown in a medium containing DMEM-10% FBS within 10cm diameter dishes until reaching at confluency. The cells were seeded into a 24-well plate at day 1 and incubated overnight while the volume of medium was maintained to 400µℓ. […] At day 3, each 100 µℓ of test compound was added to the cells after diluting the 10mM stock compound in DMSO to final concentrations of 50, 10, 2, and 0.4 µ M, respectively. The cells were incubated for 2 hrs in order for allowing the compound to enter into the cells and then treated with 40ng/well of anti-Fas antibody(apoptosis was induced 2 hrs after antibody was treated and the incubation was continued overnight). The control was not treated with Fas antibody. […] After coloring, 100-200µℓ of the supernatant was transferred to a 96-well plate and the absorbance at 490 nm was read with ELISA plate reader. For the blank, XTT solution was added to the well containing the medium only. Plotting was determined by comparing with the control group (100% when Fas antibody was not treated).

Ki (caspase-1): 4 nM
Molecule: CC(C)[C@H](NC(=O)c1ccc2ccccc2n1)C1=NOC(Cc2ccccc2)(C(=O)N[C@@H](CC(=O)O)C(=O)COc2ccccc2)C1 (stereo partly drawn) [Compound 43mp, (3S)-3-{3-[2-methyl-(1S)-1-(quinoline-2-yl-carbonylamino)-propyl]-5-phenylmethyl-4,5-dihydro-isoxazole-5-carbonylamino}-4-keto-5-phenoxy-pentanoic acid]
EC50 (Jurkat T cell; Homo sapiens): 1000 to 10000 nM

Kobs/[I] for caspase-3 (caspase-3): 27400 M⁻¹ s⁻¹
Kobs/[I] for caspase-1 (caspase-1; Irreversible Inhibitors): 3400 M⁻¹ s⁻¹
Molecule: COCC1(C(=O)N[C@@H](CC(=O)O)C(=O)COC(=O)c2c(Cl)cccc2Cl)CC([C@@H](NC(=O)CCC(=O)O)C(C)C)=NO1 (stereo partly drawn) [Compound 87, (3S)-3-{3-[2-methyl-(1S)-1-(succinoylamino)-propyl]-5-methoxymethyl-4,5-dihydro-isoxazole-5-carbonylamino}-4-keto-5-(2,6-dichlorobenzoyloxy)-pentanoic acid]

Molecule: CC1(C(=O)N[C@@H](CC(=O)O)C(=O)COc2ccccc2)CC([C@H](CCC(=O)O)NC(=O)CCC(=O)O)=NO1 (mixture of isomers) [Compound 46, (3S)-3-{3-[(1S)-1-(succinoylamino)-3-carboxy-propyl]-5-methyl-4,5-dihydro-isoxazole-5-carbonylamino}-4-keto-5-phenoxy-pentanoic acid]
EC50 (Jurkat T cell; Homo sapiens): 1000 to 10000 nM

Molecule: CC(C)[C@H](NC(=O)c1ccc2ccccc2c1)C1=NOC(C(=O)N[C@@H](CC(=O)O)C(=O)COc2ccccc2)C1 (stereo partly drawn) [Compound 30, (3S)-3-{3-[2-methyl-(1S)-1-(2-naphthalenecarbonylamino)-propyl]-4,5-dihydro-isoxazole-5-carbonylamino}-4-keto-5-phenoxy-pentanoic acid]
EC50 (Jurkat T cell; Homo sapiens): 1000 to 10000 nM

Molecule: CC(C)[C@H](NC(=O)CCC(=O)O)C1=NOC(C)(C(=O)N[C@@H](CC(=O)O)C(=O)COc2ccccc2)C1 (mixture of isomers) [Compound 47, (3S)-3-{3-[2-methyl-(1S)-1-(succinoylamino)-propyl]-5-methyl-4,5-dihydro-isoxazole-5-carbonylamino}-4-keto-5-phenoxy-pentanoic acid]
EC50 (Jurkat T cell; Homo sapiens): 1000 to 10000 nM

Molecule: CC(C)[C@H](NC(=O)c1ccc2ccccc2c1)C1=NOC(C(=O)N[C@@H](CC(=O)O)C(=O)COc2ccc3ccccc3c2)C1 (stereo partly drawn) [Compound 29, (3S)-3-{3-[(1S)-1-(naphthalene-2-carbonylamino)-2-methyl-propyl]-4,5-dihydro-isoxazole-5-carbonylamino}-4-keto-5-(2-naphthyloxy)-pentanoic acid]
EC50 (Jurkat T cell; Homo sapiens): 1000 to 10000 nM

Molecule: (3S)-3-{3-[(1S)-1-(quinoline-2-yl-carbonylamino)-2-methyl-propyl]-5-phenox ymethyl-4,5-dihydro-isoxazole-5-carbonylamino}-4-keto-pentanoic acid [Compound 22mp]
EC50 (Jurkat T cell): 1000 to 10000 nM
Ki (caspase-1): 0.125 nM

Molecule: CC(=O)N[C@@H](CC(=O)O)C(=O)N[C@@H](CCC(=O)O)C(=O)N[C@H](C(=O)N[C@H](C=O)CC(=O)O)C(C)C [Ac-DEVD-CHO, reference compound]
viability ratio (WI38 cells; Conc. 0.4 µM): 12.16%
viability ratio (WI38 cells; Conc. 2 µM): 14.75%
viability ratio (WI38 cells; Conc. 10 µM): 19.16%
viability ratio (WI38 cells; Conc. 50 µM, 50 µM): 35.1% and 35.14%

Molecule: CC(C)[C@H](NC(=O)c1cc2ccccc2[nH]1)C1=NOC(Cc2ccccc2)(C(=O)N[C@@H](CC(=O)O)C(=O)COC(=O)c2c(Cl)cccc2Cl)C1 (stereo partly drawn) [Compound 64, (3S)-3-{3-[2-methyl-(1S)-1-(indole-2-carbonylamino)-propyl]-5-phenylmethyl - 4,5-dihydro-isoxazole-5-carbonylamino}-4-keto-5-(2,6-dichlorobenzoyloxy)-pe ntanoic acid]
EC50 (Jurkat T cell; Homo sapiens): 1000 to 10000 nM

Molecule: CC(C)[C@H](NC(=O)[C@H](CCC(=O)O)NC(=O)[C@H](CC(=O)O)NC(=O)OCc1ccccc1)C(=O)N[C@@H](CC(=O)O)C(=O)CCl [z-DEVD-cmk, reference compound]
viability ratio (WI38 cells; Conc. 0.4 µM): 15.13%
viability ratio (WI38 cells; Conc. 2 µM): 16.27%
viability ratio (WI38 cells; Conc. 10 µM): 27.38%
viability ratio (WI38 cells; Conc. 50 µM, 50 µM): 47.3% and 47.32%

Molecule: CC(C)[C@H](NC(=O)CCC(=O)O)C1=NOC(C)(C(=O)N[C@@H](CC(=O)O)C(=O)COc2ccc3ccccc3c2)C1 (single isomer, unassigned) [Compound 81]
EC50 (Jurkat T cell; Homo sapiens): 1000 to 10000 nM

Molecule: CC(C)[C@H](NC(=O)c1cccc2ccccc12)C1=NOC(C)(C(=O)N[C@@H](CC(=O)O)C(=O)COC(=O)c2c(Cl)cccc2Cl)C1 (stereo partly drawn) [Compound 68, (3S)-3-{3-[2-methyl-(1S)-1-(naphthalene-1-carbonylamino)-propyl]-5-methyl-4,5-dihydro-isoxazole-5-carbonylamino}-4-keto-5-(2,6-dichlorobenzoyloxy)-pen tanoic acid]
EC50 (Jurkat T cell; Homo sapiens): 1000 to 10000 nM

Molecule: CC(C)[C@H](NC(=O)c1ccc2ccccc2c1)C1=NOC(Cc2ccccc2)(C(=O)N[C@@H](CC(=O)O)C(=O)COC(=O)c2c(Cl)cccc2Cl)C1 (stereo partly drawn) [Compound 28, (3S)-3-{3-{(1S)-1-(naphthalene-2-carbonylamino)-2-methyl-propyl]-5-phenylmethyl-4,5-dihydro-isoxazole-5-carbonylamino}-4-keto-5-(2,6-dichlorobenzoyloxy)-pentanoic acid]
viability at 0.4 µM (WI38 cells; Homo sapiens, WI-38, WI38 cells, Conc. 0.4 µM, read-out: viability ratio): 14.7%
viability at 2 µM (WI38 cells; Homo sapiens, WI-38, WI38 cells, Conc. 2 µM, read-out: viability ratio): 17.3%
viability at 10 µM (WI38 cells; Homo sapiens, WI-38, WI38 cells, Conc. 10 µM, read-out: viability ratio): 82.4%
viability at 50 µM (WI38 cells; Homo sapiens, WI-38, WI38 cells, Conc. 50 µM, read-out: viability ratio): 90%
viability ratio (WI38 cells; Conc. 50 µM, listed as Comp 28, 50 µM): 90.39%

Kobs/[I] for caspase-3 (caspase-3): 80100 M⁻¹ s⁻¹
Molecule: CCCCCC1(C(=O)N[C@@H](CC(=O)O)C(=O)COC(=O)c2c(Cl)cccc2Cl)CC([C@@H](NC(=O)CCC(=O)O)C(C)C)=NO1 (stereo partly drawn) [Compound 90, (3S)-3-{3-[2-methyl-(1S)-1-(succinoylamino)-propyl]-5-n-pentyl-4,5-dihydro-isoxazole-5-carbonylamino}-4-keto-5-(2,6-dichlorobenzoyloxy)-pentanoic acid]

Ki (caspase-1): 0.0721 nM
Molecule: CC(C)[C@H](NC(=O)c1ccc2ccccc2c1)C1=NOC(COc2ccccc2)(C(=O)N[C@@H](CC(=O)O)C(=O)COc2ccc3ccccc3c2)C1 (stereo partly drawn) [Compound 25mp, (3S)-3-{3-[(1S)-1-(naphthalene-2-carbonylamino)-2-methyl-propyl]-5-phenoxymethyl-4,5-dihydro-isoxazole-5-carbonylamino}-4-keto-5-(2-naphthyloxy)-pent anoic acid]
EC50 (Jurkat T cell; Homo sapiens): 1000 to 10000 nM

Molecule: CC(C)[C@H](NC(=O)c1c[nH]c2ccccc12)C1=NOC(Cc2ccccc2)(C(=O)N[C@@H](CC(=O)O)C(=O)COC(=O)c2c(Cl)cccc2Cl)C1 (stereo partly drawn) [Compound 66, (3S)-3-{3-[2-methyl-(1S)-1-(indole-3-carbonylamino)-propyl]-5-phenylmethyl - 4,5-dihydro-isoxazole-5-carbonylamino}-4-keto-5-(2,6-dichlorobenzoyloxy)-pe ntanoic acid]
EC50 (Jurkat T cell; Homo sapiens): 1000 to 10000 nM

Ki (caspase-1): 28900 nM
Molecule: CC(C)[C@H](NC(=O)CCC(=O)O)C1=NOC(C)(C(=O)N[C@@H](CC(=O)O)C(=O)CN2CCCCC2)C1 (stereo partly drawn) [Compound 77, (3S)-3-{3-[2-methyl-(1S)-1-(succinoylamino)-propyl]-5-methyl-4,5-dihydro-isoxazole-5-carbonylamino}-4-keto-5-(N-piperidine)-pentanoic acid]
EC50 (Jurkat T cell; Homo sapiens): 1000 to 10000 nM

Molecule: CC(C)[C@H](NC(=O)c1cccc2ccccc12)C1=NOC(Cc2ccccc2)(C(=O)N[C@@H](CC(=O)O)C(=O)CN2CCCCC2)C1 (stereo partly drawn) [Compound 48, (3S)-3-{3-[2-methyl-(1S)-1-(1-naphtalenylcarbonylamino)-propyl]-5-phenylmethyl-4,5-dihydro-isoxazole-5-carbonylamino}-4-keto-5-(1-piperidinyl)-pentanoic acid]
EC50 (Jurkat T cell; Homo sapiens): 1000 to 10000 nM
